Measurements reported in patent US6391261B1, “Device for detecting analytes related to sample pH” (Lifepoint, Inc., priority 2000, dated 2002).

Test system: cocaine antibody
Test: Cross-reactivity of the antibody used in the lateral flow competitive immunoassay for cocaine
Assay type: binding
Conditions: dye labeled cocaine antibody of the saliva test cassette
Text: Each rapid oral fluid test cassette 70 included in this test kit consists of a lateral flow assay strip, a color intensity chart 78, a pH test section 82, and a pH chart 80. The lateral flow assay strip consists of color dye labeled cocaine antibody and a nitrocellulose membrane coated with cocaine-Bovine Serum […] (“BSA”) conjugate. When a saliva sample is applied to the sample section of the cassette, the saliva sample will migrate by capillary movement to the dye-antibody zone and the cocaine-BSA membrane zone. If the sample tested is negative, the dye-antibody will bind with the membrane cocaine-BSA conjugate to form a red band on the membrane.
If the sample tested contains cocaine, cocaine in the sample will bind with the dye-antibody, and thus the binding between the dye-antibody and the membrane cocaine-BSA is prevented. The unbound dye-antibody will migrate away from the membrane to an absorbent pad. As a result, the intensity of the color band appearing on the membrane is inversely proportional to the concentration of cocaine in the saliva sample. A semi-quantitative result of cocaine concentration in the saliva sample is achieved by comparing the color band with a color intensity chart.

Row | Compound | cross-reactivity of the assay antibody as compared with cocaine
1 | CN1[C@H]2CC[C@@H]1[C@@H](C(=O)O)[C@@H](OC(=O)c1ccccc1)C2 [benzoylecgonine] | less than 5%
2 | COc1ccc2c3c1O[C@H]1[C@@H](O)C=C[C@H]4[C@@H](C2)N(C)CC[C@@]341 [codeine] | No significant cross-reactivity
3 | CCO [ethanol] | No significant cross-reactivity
4 | CN[C@@H](C)Cc1ccccc1 [methamphetamine] | No significant cross-reactivity
5 | CN1CC[C@]23c4c5ccc(O)c4O[C@H]2[C@@H](O)C=C[C@H]3[C@H]1C5 [morphine] | No significant cross-reactivity
6 | c1ccc(C2(N3CCCCC3)CCCCC2)cc1 [phencyclidine] | No significant cross-reactivity
7 | tetrahydrocannabinols | No significant cross-reactivity
